What was measured:
PI3K alpha = PI3K alpha (Homo sapiens (Human), UniProt P42336); experiment: Enzymatic PI3K alpha isoform inhibition (lipid kinase activity, Kinase-Glo luminescence); format: biochemical; settings: Enzymatic assay
Outline: (§1)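 ATP-depletion format: 10 nM PI3K with 5 μg/mL phosphatidylinositol and 2 μM ATP, run to ~50% ATP consumption, then Kinase-Glo added and remaining ATP read by luminescence after 5 min. IC50 from 4-parameter logistic fit, typically over 8 concentrations 10–0.003 μM.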

PI3K delta = PI3K delta (Homo sapiens (Human), UniProt O00329); experiment: Enzymatic PI3K delta isoform inhibition (lipid kinase activity, Kinase-Glo luminescence); format: biochemical; settings: Enzymatic assay
Outline: as §1

Chain of PI3K delta (O00329 other isoform, or with tags, fused parts or gaps linker GGGGGG): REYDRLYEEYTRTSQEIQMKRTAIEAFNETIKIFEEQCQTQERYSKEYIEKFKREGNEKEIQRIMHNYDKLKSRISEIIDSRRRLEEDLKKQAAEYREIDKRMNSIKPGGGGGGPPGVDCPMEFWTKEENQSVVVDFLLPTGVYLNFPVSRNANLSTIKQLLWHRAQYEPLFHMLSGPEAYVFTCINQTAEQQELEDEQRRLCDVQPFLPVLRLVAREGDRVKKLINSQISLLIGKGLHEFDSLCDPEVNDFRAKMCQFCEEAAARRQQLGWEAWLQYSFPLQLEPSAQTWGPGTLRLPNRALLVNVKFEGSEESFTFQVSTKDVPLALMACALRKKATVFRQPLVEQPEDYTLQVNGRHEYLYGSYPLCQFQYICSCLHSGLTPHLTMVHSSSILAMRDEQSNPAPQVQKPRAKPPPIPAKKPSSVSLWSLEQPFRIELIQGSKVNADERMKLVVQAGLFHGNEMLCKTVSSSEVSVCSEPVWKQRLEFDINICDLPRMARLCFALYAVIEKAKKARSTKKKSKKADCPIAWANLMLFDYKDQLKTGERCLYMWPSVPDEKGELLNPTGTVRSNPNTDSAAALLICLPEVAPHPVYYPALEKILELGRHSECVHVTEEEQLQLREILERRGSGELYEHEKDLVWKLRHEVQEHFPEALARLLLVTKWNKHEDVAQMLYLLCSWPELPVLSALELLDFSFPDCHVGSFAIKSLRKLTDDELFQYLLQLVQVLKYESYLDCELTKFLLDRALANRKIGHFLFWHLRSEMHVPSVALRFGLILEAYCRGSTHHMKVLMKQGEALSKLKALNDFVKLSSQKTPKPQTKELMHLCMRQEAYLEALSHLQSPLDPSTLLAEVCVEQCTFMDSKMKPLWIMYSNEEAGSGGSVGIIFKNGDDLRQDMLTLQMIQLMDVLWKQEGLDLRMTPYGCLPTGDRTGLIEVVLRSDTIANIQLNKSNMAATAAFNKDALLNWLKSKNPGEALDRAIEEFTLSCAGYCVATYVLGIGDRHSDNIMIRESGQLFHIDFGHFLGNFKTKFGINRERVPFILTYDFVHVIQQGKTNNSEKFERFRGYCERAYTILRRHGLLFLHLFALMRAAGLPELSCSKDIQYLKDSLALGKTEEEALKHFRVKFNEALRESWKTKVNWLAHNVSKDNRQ
Chain of PI3K alpha (P42336 other isoform, or with tags, fused parts or gaps): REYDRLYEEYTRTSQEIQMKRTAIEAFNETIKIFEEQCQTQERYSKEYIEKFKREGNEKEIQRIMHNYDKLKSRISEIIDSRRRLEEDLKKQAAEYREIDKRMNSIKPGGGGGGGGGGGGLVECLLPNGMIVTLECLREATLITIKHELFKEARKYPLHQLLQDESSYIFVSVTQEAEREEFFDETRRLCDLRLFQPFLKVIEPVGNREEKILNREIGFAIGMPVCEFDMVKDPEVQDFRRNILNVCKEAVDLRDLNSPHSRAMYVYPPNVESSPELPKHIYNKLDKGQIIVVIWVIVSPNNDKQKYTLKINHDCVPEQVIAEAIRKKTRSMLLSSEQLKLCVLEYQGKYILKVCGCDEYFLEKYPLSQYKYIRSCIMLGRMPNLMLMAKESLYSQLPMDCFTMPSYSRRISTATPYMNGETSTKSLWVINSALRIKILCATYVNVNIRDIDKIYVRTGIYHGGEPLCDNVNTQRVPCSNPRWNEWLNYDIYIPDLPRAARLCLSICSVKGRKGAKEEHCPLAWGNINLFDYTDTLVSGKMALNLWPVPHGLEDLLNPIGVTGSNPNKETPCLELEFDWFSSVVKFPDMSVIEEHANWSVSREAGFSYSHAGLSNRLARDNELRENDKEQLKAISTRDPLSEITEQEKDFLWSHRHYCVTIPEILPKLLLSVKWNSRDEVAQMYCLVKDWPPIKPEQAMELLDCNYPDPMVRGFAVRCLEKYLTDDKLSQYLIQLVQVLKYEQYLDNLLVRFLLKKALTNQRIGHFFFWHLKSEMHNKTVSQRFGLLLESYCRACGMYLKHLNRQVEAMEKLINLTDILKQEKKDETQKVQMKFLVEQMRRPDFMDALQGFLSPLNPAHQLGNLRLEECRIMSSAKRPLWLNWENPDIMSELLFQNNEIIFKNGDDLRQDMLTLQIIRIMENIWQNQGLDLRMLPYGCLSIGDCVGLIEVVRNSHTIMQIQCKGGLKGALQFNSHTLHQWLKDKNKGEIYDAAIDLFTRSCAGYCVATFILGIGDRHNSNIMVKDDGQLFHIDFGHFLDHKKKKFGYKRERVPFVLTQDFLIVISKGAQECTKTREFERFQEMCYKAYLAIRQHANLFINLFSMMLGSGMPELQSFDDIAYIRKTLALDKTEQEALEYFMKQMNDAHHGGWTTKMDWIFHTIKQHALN

COc1ncc(N2CCOc3ccc(O[C@H]4CCN(C(=O)C5CCS(=O)(=O)C5)C4)cc32)cc1Cl (stereo partly drawn) [Example B105, {(S)-3-[4-(5-Chloro-6-methoxy-pyridin-3-yl)-3,4-dihydro-2H-benzo[1,4]oxazin-6-yloxy]-pyrrolidin-1-yl}-(1,1-dioxo-tetrahydro-1lambda*6*-thiophen-3-yl)-methanone]
IC50 (PI3K alpha): 762 nM
IC50 (PI3K delta): 20 nM

COc1ncc(N2CCOc3ccc(O[C@H]4CCN(C(=O)c5cncnc5)C4)cc32)cc1C#N [Example C13, 2-Methoxy-5-{6-[(S)-1-(pyrimidine-5-carbonyl)-pyrrolidin-3-yloxy]-2,3-dihydro-benzo[1,4]oxazin-4-yl}-nicotinonitrile]
IC50 (PI3K alpha): 667 nM
IC50 (PI3K delta): 77 nM

COc1ncc(N2CCOc3ccc(O[C@H]4CON(C(=O)C5CCOCC5)C4)cc32)cc1C#N [Example D22, 2-Methoxy-5-{6-[(R)-2-(tetrahydro-pyran-4-carbonyl)-isoxazolidin-4-yloxy]-2,3-dihydro-benzo[1,4]oxazin-4-yl}-nicotinonitrile]
IC50 (PI3K alpha): 1020 nM
IC50 (PI3K delta): 24 nM

CS(=O)(=O)c1ncc(N2CCOc3ccc(O[C@H]4CCN(C(=O)[C@@H]5CCOC5)C4)cc32)cc1C(F)F [Example B75, {(S)-3-[4-(5-Difluoromethyl-6-methanesulfonyl-pyridin-3-yl)-3,4-dihydro-2H-benzo[1,4]oxazin-6-yloxy]-pyrrolidin-1-yl}-(R)-tetrahydro-furan-3-yl-methanone]
IC50 (PI3K alpha): 211 nM
IC50 (PI3K delta): 11 nM

CS(=O)(=O)c1ncc(N2CCOc3ccc(O[C@H]4CCN(C(=O)C5CCOCC5)C4)cc32)cc1C(F)F [Example B70, {(S)-3-[4-(5-Difluoromethyl-6-methanesulfonyl-pyridin-3-yl)-3,4-dihydro-2H-benzo[1,4]oxazin-6-yloxy]-pyrrolidin-1-yl}-(tetrahydro-pyran-4-yl)-methanone]
IC50 (PI3K alpha): 134 nM
IC50 (PI3K delta): 3 nM

Cc1cc(N2CCOc3ccc(O[C@H]4CCN(c5ccccn5)C4)cc32)cnc1S(C)(=O)=O [M, 4-(6-Methanesulfonyl-5-methyl-pyridin-3-yl)-6-((S)-1-pyridin-2-yl-pyrrolidin-3-yloxy)-3,4-dihydro-2H-benzo[1,4]oxazine]
IC50 (PI3K alpha): 304 nM
IC50 (PI3K delta): 6 nM

COc1ncc(N2CCOc3ccc(O[C@H]4CCN(C(=O)CCS(C)(=O)=O)C4)cc32)cc1Cl [Example B106, 1-{(S)-3-[4-(5-Chloro-6-methoxy-pyridin-3-yl)-3,4-dihydro-2H-benzo[1,4]oxazin-6-yloxy]-pyrrolidin-1-yl}-3-methanesulfonyl-propan-1-one]
IC50 (PI3K alpha): 247 nM
IC50 (PI3K delta): 17 nM

Cc1cc(N2CCOc3ccc(O[C@H]4CCN(S(=O)(=O)C(C)C)C4)cc32)cnc1S(C)(=O)=O [Example B82, 4-(6-Methanesulfonyl-5-methyl-pyridin-3-yl)-6-[(S)-1-(propane-2-sulfonyl)-pyrrolidin-3-yloxy]-3,4-dihydro-2H-benzo[1,4]oxazine]
IC50 (PI3K alpha): 353 nM
IC50 (PI3K delta): 66 nM

COc1cc(N2CCOc3ccc(O[C@H]4CCN(C(=O)C5CCCOC5)C4)cc32)cnc1OC (stereo partly drawn) [Example B43, {(S)-3-[4-(5,6-Dimethoxy-pyridin-3-yl)-3,4-dihydro-2H-benzo[1,4]oxazin-6-yloxy]-pyrrolidin-1-yl}-(tetrahydro-pyran-3-yl)-methanone]
IC50 (PI3K alpha): 514 nM
IC50 (PI3K delta): 57 nM

CS(=O)(=O)c1ncc(N2CCOc3ccc(O[C@H]4CCN(C(=O)C5CCOCC5)C4)cc32)cc1C(F)(F)F [Example B69, {(S)-3-[4-(6-Methanesulfonyl-5-trifluoromethyl-pyridin-3-yl)-3,4-dihydro-2H-benzo[1,4]oxazin-6-yloxy]-pyrrolidin-1-yl}-(tetrahydro-pyran-4-yl)-methanone]
IC50 (PI3K alpha): 189 nM
IC50 (PI3K delta): 5 nM

COc1ncc(N2CCOc3ccc(O[C@H]4CCN(C(=O)C5CCS(=O)(=O)CC5)C4)cc32)cc1Cl [Example B12, {(S)-3-[4-(5-Chloro-6-methoxy-pyridin-3-yl)-3,4-dihydro-2H-benzo[1,4]oxazin-6-yloxy]-pyrrolidin-1-yl}-(1,1-dioxo-hexahydro-1lambda*6*-thiopyran-4-yl)-methanone]
IC50 (PI3K alpha): 365 nM
IC50 (PI3K delta): 11 nM

COc1ncc(N2CCOc3ccc(O[C@H]4CCN(C(=O)C5CCS(=O)(=O)CC5)C4)c(F)c32)cc1C [Example I1, (1,1-Dioxo-hexahydro-1lambda*6*-thiopyran-4-yl)-{(S)-3-[5-fluoro-4-(6-methoxy-5-methyl-pyridin-3-yl)-3,4-dihydro-2H-benzo[1,4]oxazin-6-yloxy]-pyrrolidin-1-yl}-methanone]
IC50 (PI3K alpha): 842 nM
IC50 (PI3K delta): 18 nM

COc1ncc(N2CCOc3cnc(O[C@@H]4CCN(C(=O)C5CCS(=O)(=O)CC5)C4)cc32)cc1C [Example G2, (1,1-Dioxo-hexahydro-1lambda*6*-thiopyran-4-yl)-{(R)-3-[1-(6-methoxy-5-methyl-pyridin-3-yl)-2,3-dihydro-1H-pyrido[3,4-b][1,4]oxazin-7-yloxy]-pyrrolidin-1-yl}-methanone]
IC50 (PI3K alpha): 1200 nM
IC50 (PI3K delta): 207 nM

COc1ncc(N2CCOc3ccc(O[C@H]4CCN(C(=O)C5CCOC5)C4)cc32)cc1C (stereo partly drawn) [Example B16, {(S)-3-[4-(6-Methoxy-5-methyl-pyridin-3-yl)-3,4-dihydro-2H-benzo[1,4]oxazin-6-yloxy]-pyrrolidin-1-yl}-(tetrahydro-furan-3-yl)-methanone]
IC50 (PI3K alpha): 4120 nM
IC50 (PI3K delta): 37 nM

COc1ncc(N2CCOc3ccc(O[C@H]4CCN(C(=O)C5CCC(OC)CC5)C4)cc32)cc1C#N (single isomer, unassigned) [Example D35]
IC50 (PI3K alpha): 414 nM
IC50 (PI3K delta): < 3 nM

Cc1cc(N2CCOc3ccc(O[C@H]4CCN(C(=O)[C@H]5CC[C@@H](O)CC5)C4)cc32)cnc1S(C)(=O)=O [Example B51, (4-Hydroxy-cyclohexyl)-{(S)-3-[4-(6-methanesulfonyl-5-methyl-pyridin-3-yl)-3,4-dihydro-2H-benzo[1,4]oxazin-6-yloxy]-pyrrolidin-1-yl}-methanone]
IC50 (PI3K alpha): 1030 nM
IC50 (PI3K delta): 10 nM

COCC(=O)N1CC[C@H](Oc2ccc3c(c2)N(c2cnc(OC)c(F)c2)CCO3)C1 [Example B99, 1-{(S)-3-[4-(5-Fluoro-6-methoxy-pyridin-3-yl)-3,4-dihydro-2H-benzo[1,4]oxazin-6-yloxy]-pyrrolidin-1-yl}-2-methoxy-ethanone]
IC50 (PI3K alpha): 302 nM
IC50 (PI3K delta): 57 nM

COc1ncc(N2CCOc3ccc(O[C@H]4CCN(C(=O)[C@H]5CCN(C(C)=O)C5)C4)cc32)cc1C#N [J, 5-{6-[(S)-1-((S)-1-Acetyl-pyrrolidine-3-carbonyl)-pyrrolidin-3-yloxy]-2,3-dihydro-benzo[1,4]-oxazin-4-yl}-2-methoxy-nicotinonitrile]
IC50 (PI3K alpha): 998 nM
IC50 (PI3K delta): 65 nM

COc1ncc(N2CCOc3ccc(O[C@H]4CCN(C(=O)c5nnc(C)o5)C4)cc32)cc1C#N [Example C12, 2-Methoxy-5-{6-[(S)-1-(5-methyl-[1,3,4]oxadiazole-2-carbonyl)-pyrrolidin-3-yloxy]-2,3-dihydro-benzo[1,4]oxazin-4-yl}-nicotinonitrile]
IC50 (PI3K alpha): 303 nM
IC50 (PI3K delta): 116 nM

COc1ncc(N2CCOc3ccc(O[C@H]4CCN(C(=O)C5CCOCC5)C4)cc32)cc1C(F)F [Example B120, {(S)-3-[4-(5-Difluoromethyl-6-methoxy-pyridin-3-yl)-3,4-dihydro-2H-benzo[1,4]oxazin-6-yloxy]-pyrrolidin-1-yl}-(tetrahydro-pyran-4-yl)-methanone]
IC50 (PI3K alpha): 88 nM
IC50 (PI3K delta): 6 nM
